Like-named read-outs stand apart in the source and are kept apart here.
Key:
U2OS cells = test: cells; type: cell-based; details: Homo sapiens, 24 h
Outline: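 Cytotox CALUX U2OS cells, constitutively expressing luciferase, dosed with a compound dilution series 24 h after seeding and exposed 24 h. Luminescence after lysis reflects live-cell number; scaled between vehicle (100%) and 100 µM tributyltin acetate (0%).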

HepG2 cells = test: HepG2-based respirometry, total cell respiration (earlier study); details: NeuriTox neurite EC25 relative to cell respiration EC25; respirometric data from HepG2-based assays ref van der Stel et al. 2020
LUHMES cells [1] = type: cell-based, human
Experimental: Cells were cultured and treated as described above for the NeuriTox assay. On d3, after 24 h treatment, culture medium was replaced by 33 µl/well 1 × Biospyder lysis buffer. After 15 min at room temperature, plates were sealed and frozen at -80 °C to complete lysis. Samples were analyzed at Bioclavis (Glasgow) using the TempO-Seq technique and the EU-ToxRisk v2.0 gene probe panel covering ca. 3000 genes (Yeakley et al. [2017]). All genes are listed in the supplementary excel file (containing also all gene regulations). Briefly, a 50 bp fragment of the target gene was amplified. The amplification step also introduced sample-specific barcodes. This allowed pooling of all samples and standard next-generation sequencing of the ensemble. Afterward, adapters were used to allocate the sequenced fragments to the correct samples. Finally, the alignment of all sequenced fragments (FASTQ files) for each sample to the collection of reference 50 bp oligonucleotides was performed for the quantification of reads per gene, also known as the read count values. In a pre-filtering step, samples with a total count < 0.2 million and genes with an average count < 1.5 were removed.
To correct for both read depth and RNA composition, the DESeq2′s median of ratios normalization was applied. The analysis of differentially expressed genes (DEG) of each treatment against the control group was done by the Wald test implemented in DESeq2/R (Love et al. [2014]), including an FDR correction for p-adjusted ≤ 0.05. […] A curve was fit through these concentration–response data to obtain EC10DEG. For comparability, all DEG data were normalized to a positive control. […] The EC10DEG was calculated using an established online open access BMC calculator (BMCeasy) (Krebs et al. [2020]).

proteasome = test: Proteasomal activity (KE3 assay) in LUHMES cells; type: cell-based, human; details: for Ratios of EC25 KE4/KE3 proteasomal: NeuriTox neurite EC25 relative to proteasomal activity EC25, LUHMES
Experimental: Activity of the proteasome was quantified as described in (Gutbier et al. [2018b]). Briefly, after exposure, culture medium was replaced by assay buffer containing a cell-permeable proteasomal substrate (MeOSuc-Gly-Leu-Phe-AMC, 25 µM (Bachem, Bubendorf, Switzerland) in HBSS). Its AMC-fluorescence (ex: 360 nm, em: 465 nm) increases with proteasomal activity and was monitored for 90 min. Background-corrected data were used for further analysis.

LUHMES cells [2] = test: NeuriTox test: neurite area and viability, 24 h; type: cell-based, human; details: for EC25: Homo sapiens
Outline: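 LUHMES cells differentiated 48 h were reseeded at 100,000 cells/cm^2 without cAMP/GDNF and treated 1 h later for 24 h; for 120 h exposure, treatment on d5 and d7 with endpoints on d10. Calcein-AM/Hoechst imaging gave viability (live/total cells) and neurite area (calcein area minus somatic area).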

LUHMES cells [3] = test: Intracellular ATP content after NeuriTox exposure; type: cell-based; details: Homo sapiens, 24 h
Outline: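 LUHMES cells differentiated 48 h were re-seeded without cAMP/GDNF and exposed for 24 h starting 1 h after seeding; in the 120 h scenario, cells were dosed on d5 and d7 with read-out on d10. After imaging, intracellular ATP measured by CellTiterGlo 2.0 luminescence, background-corrected.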

[4] = tested on: MRC complex (cI, cII or cIII); test: HepG2-based MRC complex assay in permeabilized cells (earlier study); type: cell-based; details: NeuriTox neurite EC25 relative to complex assay EC25 in permeabilized cells; respirometric data from HepG2-based assays ref van der Stel et al. 2020
[5] = U2OS osteosarcoma cells, luminescence of constitutively expressed luciferase, read-out: Cytotox EC25 U2OS (converted)
[6] = NeuriTox exposure scheme, 24 h, read-out: LUHMES 24 h EC25 NA (neurite area) (converted)
[7] = NeuriTox exposure scheme, 24 h, read-out: LUHMES 24 h EC25 V (viability) (converted)
[8] = NeuriTox test, neurite outgrowth impairment, LUHMES 24 h, read-out: EC25 KE4 (AO) Neurite toxicity (converted)
[9] = NeuriTox exposure scheme, read-out: LUHMES 24 h EC25 ATP (converted)

In the case of `COC(=O)N(OC)c1ccccc1COc1ccn(-c2ccc(Cl)cc2)n1` [Pyraclostrobin], the EC25 (U2OS cells; [5]) is reported as over 100 µM, the “Ratios of EC25 KE4/KE1 total respiration” value (HepG2 cells) is reported as 100 and the “log2FoldChange AARS” value (LUHMES cells [1]; gene AARS, 0.0856 µM, 24 h, vs 0.1% DMSO) is reported as -0.28 log2. For the same molecule, the “log2FoldChange AASDHPPT” value (LUHMES cells [1]; gene AASDHPPT, 0.0856 µM, 24 h, vs 0.1% DMSO) was 0.80 log2, the “log2FoldChange AATF” value (LUHMES cells [1]; gene AATF, 0.0856 µM, 24 h, vs 0.1% DMSO) was -0.24 log2 and the “log2FoldChange ABCA1” value (LUHMES cells [1]; gene ABCA1, 0.0856 µM, 24 h, vs 0.1% DMSO) was -1.33 log2. For the same molecule, the “log2FoldChange ABCA6” value (LUHMES cells [1]; gene ABCA6, 0.0856 µM, 24 h, vs 0.1% DMSO) was 0.89 log2, the “Ratios of EC25 KE4/KE3 proteasomal” value (proteasome) was 0.7 and the EC25 (LUHMES cells [2]; [6]) was 25.1 µM. For the same molecule, the EC25 (LUHMES cells [2]; [7]) was over 50.1 µM, the EC25 (LUHMES cells [2]; [8]) was 25.1 µM and the EC25 (LUHMES cells [3]; [9]) was 12.6 µM. For the same molecule, the “Ratios of EC25 KE4/KE1 complex assay” value [4] was 400.
In the case of `CCOCCc1ccc(OCCN=c2[nH]cnc(CC)c2Cl)c(C)c1C` [Pyrimidifen], the EC25 (U2OS cells; [5]) is reported as 100 µM, the “Ratios of EC25 KE4/KE1 total respiration” value (HepG2 cells) is reported as 1260 and the “log2FoldChange AARS” value (LUHMES cells [1]; gene AARS, 0.08 µM, 24 h, vs 0.1% DMSO) is reported as -0.45 log2. The “log2FoldChange AASDHPPT” value (LUHMES cells [1]; gene AASDHPPT, 0.08 µM, 24 h, vs 0.1% DMSO) was 0.72 log2, the “log2FoldChange AATF” value (LUHMES cells [1]; gene AATF, 0.08 µM, 24 h, vs 0.1% DMSO) was -0.0132 log2 and the “log2FoldChange ABCA1” value (LUHMES cells [1]; gene ABCA1, 0.08 µM, 24 h, vs 0.1% DMSO) was -1.62 log2. For the same molecule, the “log2FoldChange ABCA6” value (LUHMES cells [1]; gene ABCA6, 0.08 µM, 24 h, vs 0.1% DMSO) was 0.65 log2, the “Ratios of EC25 KE4/KE3 proteasomal” value (proteasome) was 1.1 and the EC25 (LUHMES cells [2]; [6]) was 15.8 µM. The EC25 (LUHMES cells [2]; [7]) was 39.8 µM, the EC25 (LUHMES cells [2]; [8]) was 15.8 µM and the EC25 (LUHMES cells [3]; [9]) was 20 µM. The “Ratios of EC25 KE4/KE1 complex assay” value [4] was 15850.
For `C=C(C)[C@H]1Cc2c(ccc3c2O[C@@H]2COc4cc(OC)c(OC)cc4[C@@H]2C3=O)O1` [Rotenone], the EC25 (U2OS cells; U2OS, read-out: Cytotox EC25 U2OS) was 31.6 µM, the “Ratios of EC25 KE4/KE1 total respiration” value (HepG2 cells) was 1.3 and the “log2FoldChange AARS” value (LUHMES cells [1]) was -0.41 log2. For the same molecule, the “log2FoldChange AASDHPPT” value (LUHMES cells [1]) was 0.79 log2, the “log2FoldChange AATF” value (LUHMES cells [1]) was -0.42 log2 and the “log2FoldChange ABCA1” value (LUHMES cells [1]) was -0.98 log2. For the same molecule, the “log2FoldChange ABCA6” value (LUHMES cells [1]) was -0.24 log2, the “Potency on neurotoxicity (KE4/AO) relative to proteostasis (KE3)” value (proteasome; LUHMES) was 100 times and the “Ratios of EC25 KE4/KE3 proteasomal” value (proteasome) was 0.01. The “Proteasomal function (in words)” value (proteasome; d2 LUHMES, 22 h incubation) was “reduced proteasome function at non-cytotoxic concentrations”, the “Offset between neurite endpoint (LUHMES/SH-SY5Y) and U2OS viability” value (LUHMES cells [2]) was over 100 fold and the EC25 (LUHMES cells [2]; 24 h, read-out: EC25 KE4 (AO) Neurite toxicity) was 0.0794 µM. For the same molecule, the EC25 (LUHMES cells [2]; 24 h, read-out: LUHMES 24 h EC25 NA (neurite area)) was 0.0794 µM, the EC25 (LUHMES cells [2]; 24 h, read-out: LUHMES 24 h EC25 V (viability)) was over 10 µM and the EC25 (LUHMES cells [3]; read-out: LUHMES 24 h EC25 ATP) was 5.01 µM. The “Ratios of EC25 KE4/KE1 complex assay” value [4] was 7.9.
`Cc1nc(C(F)(F)F)c(C(=O)Nc2c(Br)cc(OC(F)(F)F)cc2Br)s1` [Thifluzamide] was tested, and the EC25 (U2OS cells; [5]) was 20 µM, the “Ratios of EC25 KE4/KE1 total respiration” value (HepG2 cells) was under 2 and the “log2FoldChange AARS” value (LUHMES cells [1]; gene AARS, 0.15 µM, 24 h, vs 0.1% DMSO) was -0.98 log2. For the same molecule, the “log2FoldChange AASDHPPT” value (LUHMES cells [1]; gene AASDHPPT, 0.15 µM, 24 h, vs 0.1% DMSO) was 0.89 log2, the “log2FoldChange AATF” value (LUHMES cells [1]; gene AATF, 0.15 µM, 24 h, vs 0.1% DMSO) was -0.41 log2 and the “log2FoldChange ABCA1” value (LUHMES cells [1]; gene ABCA1, 0.15 µM, 24 h, vs 0.1% DMSO) was -0.76 log2. For the same molecule, the “log2FoldChange ABCA6” value (LUHMES cells [1]; gene ABCA6, 0.15 µM, 24 h, vs 0.1% DMSO) was 1.03 log2, the “Ratios of EC25 KE4/KE3 proteasomal” value (proteasome) was 1.1 and the EC25 (LUHMES cells [2]; [6]) was 20 µM. It also gave an EC25 (LUHMES cells [2]; [7]) of 63.1 µM, an EC25 (LUHMES cells [2]; [8]) of 20 µM and an EC25 (LUHMES cells [3]; [9]) of 20 µM. The “Ratios of EC25 KE4/KE1 complex assay” value [4] was 2.5.
